Laboratory results published in patent US8481459B2, “Chemical inhibitors of ethylene biosynthesis” (Academia Sinica, priority 2010, dated 2013).

Tested on: etiolated eto2-1 seedlings
Assay: Hypocotyl length of etiolated eto2-1 seedlings
Type: in vivo, Arabidopsis thaliana
Details: 30 μM
Protocol: Seeds of eto1-4 and eto2-1 were germinated in the dark in the absence (−) or presence (+) of different concentrations (10, 20 or 30 μM) of exemplary invention compounds and AVG. The length of hypocotyls and ethylene levels were quantified in 3-day-old etiolated seedlings. Data represent means±SE (n>40), and the experiments were repeated 3 times with similar results.
Therefore, ACC oxidase as the primary target of exemplary the exemplary invention compounds can be excluded. To determine whether the exemplary invention compounds are inhibitors of ACC synthase, the following assays were used. First, the hypocotyl length and ethylene level in the dominant eto2-1 mutant were analyzed, which bears a missense mutation at the 3′ terminus of ACS5 to generate a mutated yet functional protein, ACS5^eto2-1. […] Second, the effect of exemplary invention compounds on the enzymatic activity of recombinant Arabidopsis ACS5 protein by an in vitro ACS activity assay was analyzed (Chae, et al. (2003) Plant Cell 15, 545-559; Savaldi-Goldstein, et al. (2008) Proc Natl Acad Sci USA 105, 15190-15195).

COc1ccc(C2CC(=O)c3cnc(Nc4ccccc4)nc3C2)cc1 (stereo not shown) [Compound 7303]
suppression in hypocotyl length: 25%
